Reference: paper PMC8634879, “Design, Synthesis, and Biological Evaluation of Pyrano[2,3-c]-pyrazole–Based RalA Inhibitors Against Hepatocellular Carcinoma” (Frontiers in Chemistry, 2021)
Read-outs that look alike come from different tables or passages of the source.

Assays:
Huh-7 cells = test: Cell proliferation assay (MTT), Huh-7; assay type: cell-based; conditions: Homo sapiens
Description: (§1) The antibodies recognizing LC3, p62/SQSTM1, RalA, RalB, and GAPDH were purchased from Proteintech (Wuhan, China). HCC cell lines, including HepG2, Hep3B, Huh-7, and SMMC-7721, were obtained from the Chinese Center for Type Culture Collection (Wuhan, China) and cultured in DMEM (Dulbecco’s modified Eagle’s medium) with 10% FBS (fetal bovine serum) and streptomycin. Cytotoxicity assays were performed by using the MTT method as previously described.
(§2) The in vitro RalA/B bioactivity assays were performed following methods outlined in previous reports. ([Yan et al., 2016]; [Zhang et al., 2018]; [Walsh et al., 2019]; [Bum-Erdene et al., 2020]). In brief, the lysates of the test compound or vehicle-treated cells were cleared using cold centrifugation, and supernatants were collected. An RalBP1 solution was added to 96-well plates and incubated for 1–2 h, and then the plates were washed thrice using ELISA buffer. Next, cellular lysates were added, and samples were incubated overnight at 4°C. Then, ice-cold mouse anti-FLAG antibody was added, and samples were incubated for one more hour. After subsequent washing with ELISA buffer thrice, the HRP-conjugated anti-mouse antibody was added, and samples were incubated for another hour. Then, the HRP substrate was added. Antigen–antibody reactions were quenched by the addition of sulfuric acid (2 mol/L). Remaining RalA/B was detected by the OD450 values which were collected by using a plate reader. Cell proliferation assays, colony formation assays, apoptosis assays, GST pulldown, and Western blotting were used following methods outlined in our previous reports. ([Zhou et al., 2015]; [Zhang et al., 2016]; [Yang et al., 2017]; [He et al., 2019]). Autophagy levels and protein immunoblotting were used following the methods mentioned in our previous reports ([Pan et al., 2018]; [Wang et al., 2018]; [Hao et al., 2019]; [Wang et al., 2019]; [Peng et al., 2020]). Detailed experimental procedures are described in supporting materials.

RalA = target: T1, RalA (Homo sapiens, UniProt P11233); test: ELISA-based RalA activity assay (RalBP1-coated plates, lysates of compound-treated cells); assay type: biochemical; conditions: for remaining activity at 1 µM: 1 μM compound, % control = activity remained; for IC50: enzymatic inhibition, average of at least three independent replicates ± SD, read-out: Kinase activities (IC50, μM) RalA
T1 construct: expressed in transfected cells; host or cells: HepG2 (from b6; the methods paragraph names no cell line)
T1 sequence (P11233 1-203 limits assumed): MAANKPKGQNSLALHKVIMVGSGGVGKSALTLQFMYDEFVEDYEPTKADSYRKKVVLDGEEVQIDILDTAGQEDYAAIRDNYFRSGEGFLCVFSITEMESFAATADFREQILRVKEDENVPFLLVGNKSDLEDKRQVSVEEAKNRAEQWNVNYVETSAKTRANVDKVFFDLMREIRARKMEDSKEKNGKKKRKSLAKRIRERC
Description: as §2

RalB = target: T2, RalB (Homo sapiens, UniProt P11234); test: ELISA-based RalB activity assay (RalBP1-coated plates, lysates of compound-treated cells); assay type: biochemical; conditions: for remaining activity at 1 µM: 1 μM compound, % control = active (RalBP1-bound) RalB remaining; for IC50: enzymatic inhibition, average of at least three independent replicates ± SD, read-out: Kinase activities (IC50, μM) RalB
T2 construct: expressed in transfected cells; host or cells: HepG2 (from b6; the methods paragraph names no cell line)
T2 sequence (P11234 1-203 limits assumed): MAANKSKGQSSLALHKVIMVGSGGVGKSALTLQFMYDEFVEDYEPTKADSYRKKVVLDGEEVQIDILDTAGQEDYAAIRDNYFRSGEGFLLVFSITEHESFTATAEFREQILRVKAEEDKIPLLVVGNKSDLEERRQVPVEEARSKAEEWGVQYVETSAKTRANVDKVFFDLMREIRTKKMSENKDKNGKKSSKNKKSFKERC
Description: as §2

HepG2 cells = test: Cell proliferation assay (MTT), HepG2; assay type: cell-based; conditions: Homo sapiens
Description: as §1, §2

SMMC-7721 cells = test: Cell proliferation assay (MTT), SMMC-7721; assay type: cell-based; conditions: Homo sapiens, average of at least three independent replicates ± SD, read-out: Anti-proliferative activities (IC50, μM) SMMC-7721
Description: as §1, §2

Hep3B cells = test: Cell proliferation assay (MTT), Hep3B; assay type: cell-based; conditions: Homo sapiens, average of at least three independent replicates ± SD, read-out: Anti-proliferative activities (IC50, μM) Hep3B
Description: as §1, §2

[1] = Table 1, cell proliferation inhibition, read-out: IC50 (μM) Huh7
[2] = Table 2, average of at least three independent replicates ± SD, read-out: Anti-proliferative activities (IC50, μM) Huh-7
[3] = HepG2, Table 1, cell proliferation inhibition, read-out: IC50 (μM) HepG2
[4] = HepG2, Table 2, average of at least three independent replicates ± SD, read-out: Anti-proliferative activities (IC50, μM) HepG2

SMILES	IC50 (Huh-7 cells; [1]) [µM]	IC50 (Huh-7 cells; [2]) [µM]	remaining activity at 1 µM (RalA) [%]	IC50 (RalA) [µM]	remaining activity at 1 µM (RalB) [%]	IC50 (RalB) [µM]	IC50 (HepG2 cells; [3]) [µM]	IC50 (HepG2 cells; [4]) [µM]	IC50 (SMMC-7721 cells) [µM]	melting point [°C]	IC50 (Hep3B cells) [µM]
Cc1ccc(S(=O)(=O)NC2=C(C#N)C(c3ccc(C(F)(F)F)cc3)c3c(C)nn(-c4ccccc4)c3O2)cc1 (centres unmarked) [4n, N-(5-cyano-3-methyl-1-phenyl-4-(4-(trifluoromethyl)phenyl)-1,4-dihydropyrano[2,3-c]-pyrazol-6-yl)-4-methylbenzenesulfonamide]	9.58 ± 0.92	9.58 ± 0.92	46	1.81 ± 0.19	59	4.11 ± 0.45	8.46 ± 0.92	8.46 ± 0.92	> 10	109.3 to 110.2	> 10
Cc1ccc(S(=O)(=O)NC2=C(C#N)C(c3cccnc3)c3c(C)nn(-c4ccccc4)c3O2)cc1 (centres unmarked) [4k, N-(5-cyano-3-methyl-1-phenyl-4-(pyridin-3-yl)-1,4-dihydropyrano[2,3-c]-pyrazol-6-yl)-4-methylbenzenesulfonamide]	6.01 ± 0.57	6.01 ± 0.57	32	0.75 ± 0.09	38	1.09 ± 0.13	5.63 ± 0.58	5.63 ± 0.58	> 10		> 10
Cc1nn(-c2ccccc2)c2c1C(c1ccc(C(F)(F)F)cc1)C(C#N)=C(NS(=O)(=O)c1ccc(C(F)(F)F)cc1)O2 (centres unmarked) [4q, N-(5-cyano-3-methyl-1-phenyl-4-(4-(trifluoromethyl)phenyl)-1,4-dihydropyrano[2,3-c]-pyrazol-6-yl)-4-(trifluoromethyl)-benzenesulfonamide]	8.42 ± 0.94	8.42 ± 0.94	37	1.02 ± 0.09	39	1.16 ± 0.19	8.65 ± 0.97	8.65 ± 0.97	> 10	153.7 to 154.1	7.76 ± 1
Cc1ccc(C2C(C#N)=C(NS(=O)(=O)c3ccc(C)cc3)Oc3c2c(C)nn3-c2ccccc2)cc1 (centres unmarked) [4b, N-(5-cyano-3-methyl-1-phenyl-4-(p-tolyl)-1,4-dihydropyrano[2,3-c]-pyrazol-6-yl)-4-methylbenzenesulfonamide]	> 10		75		105		> 10			74.7 to 75	
Cc1ccc(S(=O)(=O)NC2=C(C#N)C(c3ccco3)c3c(C)nn(-c4ccccc4)c3O2)cc1 (centres unmarked) [4j, N-(5-cyano-4-(furan-2-yl)-3-methyl-1-phenyl-1,4-dihydropyrano[2,3-c]-pyrazol-6-yl)-4-methylbenzenesulfonamide]	9.94 ± 1.23		57		70		9.57 ± 1.05			153.8 to 154.3	
Cc1ccc(S(=O)(=O)NC2=C(C#N)C(c3ccccc3)c3c(C)nn(-c4ccc(Cl)cc4)c3O2)cc1 (centres unmarked) [4ac, N-(1-(4-chlorophenyl)-5-cyano-3-methyl-4-phenyl-1,4-dihydropyrano[2,3-c]-pyrazol-6-yl)-4-methylbenzenesulfonamide]	> 10		67		68		> 10			181.4 to 181.7	
Cc1ccc(S(=O)(=O)NC2=C(C#N)C(c3ccc(Br)cc3F)c3c(C)nn(-c4ccccc4)c3O2)cc1 (centres unmarked) [4h, N-(4-(4-bromo-2-fluorophenyl)-5-cyano-3-methyl-1-phen-yl-1,4-dihydropyrano[2,3-c]-pyrazol-6-yl)-4-methylbenzenesulfonamide]	> 10		70		83		> 10			73.6 to 77.4	
Cc1ccc(-n2nc(C)c3c2OC(NS(=O)(=O)c2ccc(C)cc2)=C(C#N)C3c2ccccc2)cc1 (centres unmarked) [4ae, N-(5-cyano-3-methyl-4-phenyl-1-(p-tolyl)-1,4-dihydro-pyrano[2,3-c]-pyrazol-6-yl)-4-methylbenzenesulfonamide]	> 10		79		78		> 10			142.5 to 143	
Cc1ccc(S(=O)(=O)NC2=C(C#N)C(c3ccccc3)c3c(C)nn(-c4ccccc4Cl)c3O2)cc1 (centres unmarked) [4ad, N-(1-(2-chlorophenyl)-5-cyano-3-methyl-4-phenyl-1,4-dihydropyrano[2,3-c]-pyrazol-6-yl)-4-methylbenzenesulfonamide]	> 10		52		64		> 10			77.4 to 78	
Cc1ccc(S(=O)(=O)NC2=C(C#N)C(c3ccc(F)cc3)c3c(C)nn(-c4ccccc4)c3O2)cc1 (centres unmarked) [4e, N-(5-cyano-4-(4-fluorophenyl)-3-methyl-1-phenyl-1,4-dihydropyrano[2,3-c]-pyrazol-6-yl)-4-methylbenzenesulfonamide]	> 10		74		76		> 10			113 to 113.5	
Cc1ccc(S(=O)(=O)NC2=C(C#N)C(c3ccncc3)c3c(C)nn(-c4ccccc4Cl)c3O2)cc1 (centres unmarked) [4u, N-(1-(2-chlorophenyl)-5-cyano-3-methyl-4-(pyridin-4-yl)-1,4-dihydropyrano[2,3-c]-pyrazol-6-yl)-4-methylbenzenesulfonamide]	> 10		44		50		8.71 ± 0.74			79 to 80	
COc1cccc(C2C(C#N)=C(NS(=O)(=O)c3ccccc3)Oc3c2c(C)nn3-c2ccccc2Cl)c1 (centres unmarked) [4x, N-(1-(2-chlorophenyl)-5-cyano-4-(3-methoxyphenyl)-3-methyl-1,4-dihydropyrano[2,3-c]-pyrazol-6-yl)benzenesulfonamide]	8.93 ± 1.02		59		58		> 10			66 to 67.5	
